Biological target: HCV NS3/4A wild type (wt) (Hepatitis C virus genotype 1b (isolate BK) (HCV), UniProt P26663)
Assay: Mass spectrometric analysis (MALDI-TOF) of intact protease incubated with test compound
Format: binding
Conditions: 10-fold excess of compound
Protocol: Mass spectrometric analysis of HCV wild type or HCV variant C159S in the presence of test compound is performed. 100 pmols of HCV wild type (Bioenza CA) is incubated with test compound for 1 hr and 3 hrs at 10-fold access of test compound to protein. 1 ul aliquots of the samples (total volume of 4.24 ul) are diluted with 10 ul of 0.1% TFA prior to micro C4 ZipTipping directly onto the MALDI target using Sinapinic acid as the desorption matrix (10 mg/mL in 0.1% TFA:Acetonitrile 50:50). Analyses are performed on a Shimadzu Biotech Axima TOF^2 (Shimadzu Instruments) matrix-assisted-laser desorption/ionization Time-of-Flight (MALDI-TOF) mass spectrometer. The same procedure is carried out on 100 pmols of HCV C159S mutant of HCV protease for 3 hrs at 10-fold excess of test compound to protein.
(§1) 2 ul aliquots of the samples were diluted with 10 ul of 0.1% TFA prior to micro C4 ZipTipping directly onto the MALDI target using Sinapinic acid as the desorption matrix (10 mg/ml in 0.1% TFA:Acetonitrile 50:50). For intact protein mass measurement the instrument was set in linear mode using a pulsed extraction setting of 24,500 and apomyoglobin as the standard to calibrate the instrument.
as §1, with “[…]” for “C4”, “20:80).” for “50:50).”

Structure (SMILES)	covalent modification of protein (reaction with compound, mass spectrometry) (3 hr incubation)	mass increase of new protein species versus protein with no compound (3 hr incubation)	covalent modification of protein (reaction with compound, mass spectrometry) (1 hr incubation)
C=CC(=O)NC[C@H](NC(=O)[C@@H](NC(=O)c1cnccn1)C1CCCCC1)C(=O)N1C[C@@H]2CCC[C@@H]2[C@H]1C(=O)N[C@@H](CCC)C(=O)C(=O)NC1CC1 [Compound I-11, (1S,3aR,6aS)-2-((S)-3-acrylamido-2-((S)-2-cyclohexyl-2-(pyrazine-2-carboxamido)acetamido)propanoyl)-N—((S)-1-(cyclopropylamino)-1,2-dioxohexan-3-yl)octahydrocyclopenta[c]pyrrole-1-carboxamide]	reacted significantly to produce a new species	approximately 703 Da	
CCC[C@H](NC(=O)[C@@H]1[C@H]2CCC[C@H]2CN1C(=O)[C@@H](NC(=O)[C@@H](NC(=O)c1cnccn1)C1CCCCC1)C(C)(C)C)C(=O)C(=O)NC1CC1 [telaprevir, reference compound]			no reaction

Source: patent publication US9422333B2, “HCV protease inhibitors and uses thereof” (Celgene Avilomics Research, Inc., priority 2008, dated 2016)
